The numbers were not newly measured in article PMC3226709 (Journal of the American Chemical Society, 2011), which cites them from elsewhere.

In this series the test system is GSTO1. The following applies: read-out: IC50 for GSTO1 inhibition.

Usually IC50 stands for the concentration needed to halve the response being measured. Consider `CC(=O)Oc1ccc2c(c1)Oc1cc(OC(C)=O)ccc1C21OC(=O)c2cc(CCl)ccc21` [CellTracker Green, 5-chloromethylfluorescein diacetate], for which the IC50 was 51 nM.
